Experimental data: patent US20230272014A1, “COMPOSITION OF NANOPARTICLES AS CARRIER FOR HPV-DERIVED IMMUNOGENIC FRAGMENTS” (priority 2020, published 2023)

Columns and labels:
[1] = Poly(I:C) loading capacity of SiO2-Arg nanoparticles (DLS, zeta potential); type: physicochemical; conditions: SiO2-Arg loaded with poly(I:C) LMW, 0.9% NaCl
influenza A virus PR8/34 = type: in vivo, C57BL/6 mice; conditions: s.c. 24 hours before intranasal five-fold LD50 influenza A PR8/34
DC2.4 cells = assay: MHC class I cross presentation of OVA257-264 in DC2.4 cells; type: cell-based, murine; conditions: 6 h incubation, 5 μM, 25-D1.16 antibody, flow cytometry, with or without SiO2—PO3H2
Experimental: After an incubation time of 6 h, the test substances were removed by washing with phosphate-buffered saline (PBS). In the next step, the cells were incubated with CD16/CD32 antibody in order to block the non-specific binding of the detection antibody to the Fc (Fragment, crystallizable) receptor of the cells. After incubation with 25-D1.16 antibody, the amount of cross-presented OVA257-264 was quantified by flow cytometry. FIG. 16: […] Quantification was carried out by flow cytometry after labeling with 25-D1.16 detection antibody.

polyinosinic:polycytidylic acid [poly(I:C)]
PDI [1]: 0.557 | Peak [1]: 12.69 nm | Z ave [1]: 33.83 nm | improvement compared to the placebo group (influenza A virus PR8/34): does not show any statistically significant improvement

SIINFEKL (Ovalbumin aa 258-265; listed as Gallus gallus) [OVA257-264]
OVA257-264 MHC class I presentation (DC2.4 cells): presented in significant amounts
